Assays:
[1] = Idebenone dosing in skin cuts by gas chromatography (penetration); type: in vivo, mice; settings: mouse skin, topical cream
Method: Creams containing 5% and 2.5% w/w idebenone (IDB) in a neutral phase were prepared. Said creams and a cream having an identical formulation but without idebenone were applied on nude adult mice with 3 months of age. The cream with idebenone was applied on the right half of the body of the animals and the control cream on the left half according to the scheme detailed below. The animals were sacrificed 1, 2, 3 or 4 hours after applying the cream (p.a.). • Batch A: animal treated with 5% IDB (1 hour p.a.) • Batch B: animal treated with 2.5% IDB (1 hour p.a.) • Batch C: animal treated with 5% IDB (2 hours p.a.) • Batch D: animal treated with 2.5% IDB (2 hours p.a.) • Batch E: animal treated with 5% IDB (3 hours p.a.) • Batch F: animal treated with 2.5% IDB (3 hours p.a.) • Batch G: animal treated with 5% IDB (4 hours p.a.) • Batch H: animal treated with 2.5% IDB (4 hours p.a.) […]
Idebenone dosing by gas chromatography: The treated and control skin sections were placed epidermis side down on a cryostat stage and 300 micron thick sections parallel to the surface were obtained in such a manner so as to obtain a deep cut, a surface cut and a medium cut. […] Each extract was analyzed by gas chromatography using a Hewlett Packard 5890 gas chromatograph, using a capillary column with methyl silicone as stationary phase (HP-IMS, 25 m×0.2 mm, 0.33μ thick film). […]

[2] = tested on: skin of nude adult mice; assay: Epidermal and dermal morphometry, mouse skin; type: in vivo
Method: Creams containing 5% and 2.5% w/w idebenone (IDB) in a neutral phase were prepared. Said creams and a cream having an identical formulation but without idebenone were applied on nude adult mice with 3 months of age. The cream with idebenone was applied on the right half of the body of the animals and the control cream on the left half according to the scheme detailed below. The animals were sacrificed 1, 2, 3 or 4 hours after applying the cream (p.a.). • Batch A: animal treated with 5% IDB (1 hour p.a.) • Batch B: animal treated with 2.5% IDB (1 hour p.a.) • Batch C: animal treated with 5% IDB (2 hours p.a.) • Batch D: animal treated with 2.5% IDB (2 hours p.a.) • Batch E: animal treated with 5% IDB (3 hours p.a.) • Batch F: animal treated with 2.5% IDB (3 hours p.a.) • Batch G: animal treated with 5% IDB (4 hours p.a.) • Batch H: animal treated with 2.5% IDB (4 hours p.a.)
Morphological and morphometric studies: Thickness of the epidermis, the horny layer, the papillary dermis and reticular dermis was measured in at least 10 different points, the result being expressed as the average of the 10 measurements. Capillary vessel diameter was also measured in at least 10 points, expressing them by means of their average. The measurements were carried out using a Quantimet 500+ (Leica) image processing equipment. […]

- Thicknesses of the papillary dermis and the reticular dermis ([2]; nude mice skin, 5% and 2.5% IDB creams versus control): did not significantly vary
SMILES: COC1=C(OC)C(=O)C(CCCCCCCCCCO)=C(C)C1=O [idebenone, 6-(10-hydroxydecyl)-2,3-dimethoxy-5-methyl-1,4-benzoquinone]
- Penetration of IDB in the skin [1]: penetrates the skin and is retained up to two hours after its application in the most superficial sections
- Effect on epidermal thickness ([2]; nude mice, topically applied): does not substantially modify epidermal thickness

Source: US20090060851A1, “USE OF IDEBENONE FOR THE PREPARATION OF A TOPICALLY-APPLIED DEPIGMENTATION COMPOSITION AND CORRESPONDING COMPOSITION” (priority 2005, published 2009)
